Conditions: Liquid, light scattering

CCCCCCCC(=O)OCC [ethyl octanoate]
Conditions | speed of sound [m/s]
293.25 K, 100 kPa | 1281
293.65 K, 1000 kPa | 1284
293.67 K, 2510 kPa | 1290.6
293.69 K, 4020 kPa | 1296.8
293.72 K, 5520 kPa | 1301
293.75 K, 6980 kPa | 1307.1
293.77 K, 8490 kPa | 1313.5
293.77 K, 10010 kPa | 1325.8
303.05 K, 100 kPa | 1245.9
303.08 K, 8480 kPa | 1288.6
303.13 K, 7040 kPa | 1280.7
303.14 K, 3980 kPa | 1263.7
303.15 K, 1030 kPa | 1249.1
303.15 K, 2510 kPa | 1257.8
303.15 K, 5520 kPa | 1273.7
303.18 K, 10000 kPa | 1295.5
313.07 K, 100 kPa | 1211
313.15 K, 1000 kPa | 1214.2
313.28 K, 9990 kPa | 1263.2
313.38 K, 8530 kPa | 1257.4
313.39 K, 5500 kPa | 1240.3
313.4 K, 2510 kPa | 1223.2
313.4 K, 4060 kPa | 1230.6
313.41 K, 6980 kPa | 1249.6
322.88 K, 100 kPa | 1176.3
323.19 K, 8540 kPa | 1227.3
323.29 K, 10100 kPa | 1231.2
323.33 K, 1200 kPa | 1185.7
323.35 K, 2490 kPa | 1190.8
323.35 K, 3970 kPa | 1197.8
323.35 K, 5510 kPa | 1205.3
323.35 K, 7060 kPa | 1215
332.39 K, 9980 kPa | 1202.3
332.49 K, 8520 kPa | 1194.3
332.64 K, 7040 kPa | 1183.5
332.65 K, 5510 kPa | 1175.2
332.67 K, 2480 kPa | 1158.3
332.67 K, 4030 kPa | 1167.5
332.68 K, 980 kPa | 1149.1
333 K, 100 kPa | 1141.8
342.6 K, 890 kPa | 1113.2
342.61 K, 4000 kPa | 1133.9
342.64 K, 2530 kPa | 1124.1
342.71 K, 5490 kPa | 1142.7
342.74 K, 8510 kPa | 1163.8
342.77 K, 6990 kPa | 1152.8
342.94 K, 9970 kPa | 1168.8
343.12 K, 100 kPa | 1107.4
352.36 K, 100 kPa | 1073.3
353.44 K, 10120 kPa | 1135.6
353.54 K, 2480 kPa | 1088
353.54 K, 6990 kPa | 1116
353.54 K, 8520 kPa | 1129.3
353.56 K, 1030 kPa | 1080.3
353.58 K, 5480 kPa | 1103.2
353.6 K, 4000 kPa | 1096.3
363.16 K, 8500 kPa | 1095.2
363.19 K, 100 kPa | 1039.3
363.19 K, 1070 kPa | 1047.2
363.19 K, 7030 kPa | 1083.1
363.21 K, 2520 kPa | 1053.8
363.21 K, 4080 kPa | 1062
363.21 K, 5520 kPa | 1071.3
363.26 K, 10030 kPa | 1104.7
372.7 K, 2510 kPa | 1022.9
372.73 K, 3980 kPa | 1033.3
372.75 K, 8570 kPa | 1067.6
372.79 K, 100 kPa | 1005.6
372.79 K, 1040 kPa | 1013.2
372.82 K, 5530 kPa | 1046.7
372.82 K, 6960 kPa | 1055.2
372.95 K, 10040 kPa | 1074.2
382.73 K, 7000 kPa | 1020.4
382.8 K, 5550 kPa | 1012.8
382.82 K, 4060 kPa | 998.99
382.9 K, 2540 kPa | 988.47
382.95 K, 100 kPa | 972.04
382.95 K, 1050 kPa | 980.18
383.03 K, 8530 kPa | 1028.1
383.13 K, 9970 kPa | 1042.4
391.81 K, 8490 kPa | 1002.4
391.91 K, 9990 kPa | 1015
392.15 K, 7010 kPa | 991.89
392.29 K, 5490 kPa | 982.56
392.32 K, 100 kPa | 938.67
392.32 K, 1010 kPa | 945.16
392.33 K, 2550 kPa | 958.2
392.33 K, 4070 kPa | 971.34
402.89 K, 4000 kPa | 940.63
402.9 K, 7020 kPa | 959.16
402.91 K, 100 kPa | 905.5
402.91 K, 1000 kPa | 915.87
402.91 K, 2490 kPa | 928.04
402.91 K, 8480 kPa | 970.85
402.92 K, 10030 kPa | 980.74
402.93 K, 5470 kPa | 948.7
412.66 K, 8500 kPa | 941.83
412.76 K, 10040 kPa | 953.27
412.87 K, 7050 kPa | 922.57
413.17 K, 5530 kPa | 910.63
413.21 K, 100 kPa | 872.52
413.21 K, 1080 kPa | 878.09
413.21 K, 4060 kPa | 901.97
413.22 K, 2570 kPa | 890.98
423.24 K, 8520 kPa | 908.5
423.29 K, 7010 kPa | 892.99
423.3 K, 5530 kPa | 882.56
423.31 K, 2520 kPa | 857.92
423.32 K, 100 kPa | 839.73
423.32 K, 1150 kPa | 848.64
423.44 K, 10060 kPa | 919.28
423.53 K, 4090 kPa | 870.32
432.95 K, 5520 kPa | 847.49
432.96 K, 8480 kPa | 875.16
433.06 K, 10010 kPa | 888.66
433.09 K, 7010 kPa | 859.4
433.41 K, 2490 kPa | 823.86
433.44 K, 100 kPa | 807.14
433.44 K, 1010 kPa | 813.1
433.84 K, 4510 kPa | 835.67
442.69 K, 8510 kPa | 841.83
442.9 K, 7010 kPa | 829.81
442.99 K, 10020 kPa | 857.21
443.15 K, 5510 kPa | 817.42
443.16 K, 3990 kPa | 805.02
443.51 K, 2510 kPa | 790.8
443.55 K, 100 kPa | 774.74
443.55 K, 990 kPa | 780.57
452.41 K, 8480 kPa | 813.49
452.7 K, 7010 kPa | 798.22
453.15 K, 5520 kPa | 789.35
453.41 K, 10010 kPa | 826.34
453.47 K, 4510 kPa | 776.37
453.61 K, 2490 kPa | 762.74
453.66 K, 100 kPa | 742.53
453.66 K, 1010 kPa | 749.03
462.5 K, 7010 kPa | 772.63
463.14 K, 8480 kPa | 783.19
463.15 K, 5520 kPa | 760.28
463.24 K, 10010 kPa | 795.41
463.71 K, 2490 kPa | 730.68
463.78 K, 100 kPa | 710.51
463.78 K, 1010 kPa | 715.5
463.79 K, 4510 kPa | 744.72
472.07 K, 8500 kPa | 760.99
472.09 K, 1040 kPa | 688.23
472.09 K, 6960 kPa | 745.31
472.11 K, 2530 kPa | 704.34
472.14 K, 5460 kPa | 730.7
472.15 K, 4000 kPa | 718.2
472.17 K, 10000 kPa | 773.29
473.09 K, 100 kPa | 678.69

Conditions | speed of sound [m/s]
293.73 K | 1275.7
302.98 K | 1243
313.53 K | 1206.1
323.27 K | 1173.1
332.65 K | 1138.5
343.2 K | 1103.8
352.53 K | 1069.9
363.28 K | 1035.2
372.96 K | 1001.9
383 K | 969.3
392.03 K | 936.3
403.14 K | 901.4
413.12 K | 869.5
423.11 K | 835.7
433.2 K | 801.1
443.05 K | 770.7
453.11 K | 738.5
463.17 K | 705.5
472.16 K | 675

Reference: the NIST ThermoML archive (doi:10.1016/j.jct.2015.12.028)
